Results as given in paper PMC7961380, “A Systematic Study of the In Vitro Pharmacokinetics and Estimated Human In Vivo Clearance of Indole and Indazole-3-Carboxamide Synthetic Cannabinoid Receptor Agonists Detected on the Illicit Drug Market” (Molecules, 2021).
Where two headings read alike, the source gives them in different places.

Columns and labels:
[1] = Metabolic stability, pooled human liver microsome incubations; details: for Predicted In Vivo Hepatic Clearance, CLH: from pHLM CLint, well-stirred model with plasma fu, Q 21 mL min^−1 kg^−1; for CLint scaled at 0.5 µM / half-life at 0.5 µM: human, microsomes; for CLint scaled at 0.5 µM: pH 7.4, Intrinsic clearance; for half-life at 0.5 µM: pH 7.4, T1/2 (min), pHLM 0.5 mg mL^−1, 0.5 µM, NADPH, 37 °C; for half-life at 0.5 µM / Microsomal Intrinsic Clearance, CLint micr: n ≥ 3 ± SD
[2] = Plasma protein binding by equilibrium dialysis; assay type: in vitro ADME, human; details: human, pooled human plasma, pH 7.4, equilibrium dialysis 5 h, 37 °C
[3] = Metabolic stability, pooled human cryopreserved hepatocyte incubations; details: human, hepatocytes; for CLint scaled at 0.5 µM: Intrinsic clearance, pHHeps, alternative hepatocyte cell density 99x10^6 hepatocytes per gram liver; for half-life at 0.5 µM: T1/2 (min), pHHeps 0.25 million cells mL^−1, 0.5 µM, 37 °C, n ≥ 3 ± SD
[4] = tested on: pooled human cryopreserved hepatocytes (pHHeps); experiment: as above; details: for Predicted In Vivo Hepatic Clearance, CLH: from pHHeps CLint, well-stirred model with plasma fu, Q 21 mL min^−1 kg^−1
[5] = Short-term plasma stability with and without esterase inhibitors; details: human, pH 7.4, Parent Compound Remaining (%), 3 h, 37 °C
[6] = pHLM, alternative microsomal scaling factor 32 mg microsomal protein per gram liver
[7] = pHLM, alternative microsomal scaling factor 45 mg microsomal protein per gram liver
[8] = pHLM, scaling factor 32 mg microsomal protein per gram liver
[9] = pHLM, scaling factor 45 mg microsomal protein per gram liver
[10] = 10 µg mL^−1, read-out: PPB (%) (converted)
[11] = plasma, read-out: Fraction Unbound (fu)
[12] = pHHeps, 99x10^6 hepatocytes per gram liver
[13] = Esterase Inhibitors, pH 7.4, BNPP and PMSF 500 µM each
[14] = plasma, No Esterase Inhibitors, pH 7.4, pooled human plasma

SMILES	Predicted In Vivo Hepatic Clearance, CLH [1] [mL/min/kg]	Hepatic extraction ratio, EH ([1]; from pHLM incubations)	CLint scaled at 0.5 µM [1, 6] [mL/min/kg]	CLint scaled at 0.5 µM [1, 7] [mL/min/kg]	half-life at 0.5 µM [1] [min]	% parent compound remaining, Average ([1]; pHLM, 3 min) [%]	% parent compound remaining, Average ([1]; pHLM, 6 min) [%]	% parent compound remaining, Average ([1]; pHLM, 9 min) [%]	% parent compound remaining, Average ([1]; pHLM, 15 min) [%]	% parent compound remaining, Average ([1]; pHLM, 30 min) [%]	Microsomal Intrinsic Clearance, CLint micr ([1]; pHLM)	Hepatic extraction ratio, EH [1, 8]	Predicted in vivo hepatic clearance, CLH [1, 8] [mL/min/kg]	Predicted in vivo hepatic clearance, CLH [1, 9] [mL/min/kg]	fraction unbound at 5 h, 10 µg mL^−1 [2, 10]	fraction unbound at 5 h, 10 µg mL^−1 [2, 11]	CLint scaled at 0.5 µM [3] [mL/min/kg]	half-life at 0.5 µM [3] [min]	Predicted In Vivo Hepatic Clearance, CLH [4] [mL/min/kg]	Hepatic extraction ratio, EH ([4]; from pHHeps incubations)	further results
C=CCCCn1cc(C(=O)N[C@H](C(=O)OC)C(C)C)c2ccccc21 [(S)-AMB-4en-PICA (7), methyl 3-methyl-2-[(1-pent-4-enylindole-3-carbonyl)amino] butanoate]	9.29 ± 0.89	0.44 ± 0.042	194	273	6 ± 1	67.6	49.5	36.3	18.0	3.0	0.236 ± 0.042 mL min^−1 mg Microsomal Protein^−1	0.33 ± 0.038	6.86	8.51	0.053	0.053 ± 0.0037	1120	6.9 ± 2.1	15.56 ± 1.24	0.74 ± 0.059	Hepatic extraction ratio, EH [4, 12]: 0.73 ± 0.061; Predicted in vivo hepatic clearance, CLH [4, 12]: 15.25 ± 1.28 mL/min/kg; % parent compound remaining, Average ([4]; pHHeps, 3 min): 68.4%; % parent compound remaining, Average ([4]; pHHeps, 6 min): 54.6%; % parent compound remaining, Average ([4]; pHHeps, 9 min): 33.2%; % parent compound remaining, Average ([4]; pHHeps, 15 min): 19.4%; % parent compound remaining, Average ([4]; pHHeps, 30 min): 6.5%; % parent compound remaining, Average ([4]; pHHeps, 45 min): 1.9%; % parent compound remaining, Average ([4]; pHHeps, 60 min): 0.6%; remaining at 3 h, 5 µM [5, 13]: 95.6 ± 6.8%; remaining at 3 h, 5 µM [5, 14]: 92.6 ± 8.3%
COC(=O)[C@@H](NC(=O)c1cn(CC2CCCCC2)c2ccccc12)C(C)C [(S)-AMB-CHMICA (9), methyl [1-(cyclohexylmethyl)-1H-indole-3-carbonyl]valinate]	4.37 ± 0.68	0.21 ± 0.032	282	397	4.1 ± 0.75	52.7	35.1	25.3	9.9	2.5	0.343 ± 0.069 mL min^−1 mg Microsomal Protein^−1	0.14 ± 0.024	2.91 ± 0.50	3.87 ± 0.62	0.012	0.012 ± 0.0006	935 ± 44.8	7.6 ± 0.35	7.68 ± 0.22	0.37 ± 0.011	Hepatic extraction ratio, EH [1, 9]: 0.18 ± 0.030; Hepatic extraction ratio, EH [4, 12]: 0.35 ± 0.011; Predicted in vivo hepatic clearance, CLH [4, 12]: 7.31 ± 0.23 mL/min/kg; % parent compound remaining, Average ([4]; pHHeps, 3 min): 65.0%; % parent compound remaining, Average ([4]; pHHeps, 6 min): 58.4%; % parent compound remaining, Average ([4]; pHHeps, 9 min): 43.3%; % parent compound remaining, Average ([4]; pHHeps, 15 min): 23.8%; % parent compound remaining, Average ([4]; pHHeps, 30 min): 8.7%; % parent compound remaining, Average ([4]; pHHeps, 45 min): 3.5%; % parent compound remaining, Average ([4]; pHHeps, 60 min): 1.5%; remaining at 3 h, 5 µM [5, 13]: 90.5 ± 3.4%; remaining at 3 h, 5 µM [5, 14]: 93.9 ± 9.3%
